One assay relates to MAO. The assay can be described thus: MAO activity assay (total MAO). In kind it is biochemical. The settings on record: for Inhibition Rate for MAO: compounds concentration 100 µM. As for the experimental part: The enzyme activity analysis was performed according to the procedure reported by Matsumoto et al. with slight modifications. All materials used in the enzymatic assays were purchased from Aladdin Reagent Chemicals. […] The concentrations of the synthesized compounds altered from 0.001 µM to 100 µM for the MAO-A and -B enzyme activity inhibition. […] The enzymatic reactions were caused by the addition of MAO-A (40 µg/mL) or MAO-B (20 µg/mL), and cultured at 37 °C for 30 min. The enzyme reactions were stopped through the addition of 2N NaOH for 75 µL. […] The inhibitory effect of enzyme activity was calculated as a percentage of product formation compared to the corresponding control with no inhibitor. A control was established to determine the interference of the tested compounds to the fluorescence assay, and the enzyme or substrate was added after the reaction stopped.

The target in another assay is BChE (Homo sapiens, UniProt P06276). The assay can be described thus: biochemical. The settings on record: compounds concentration 100 µM; read-out: Inhibition Rate BChE. As for the experimental part:
Inhibition of AChE and BChE was measured through the spectrophotometric method developed by Ellman’s method with slight modifications. The analysis protocol contained 96-well plates (100 µL per well). Each well involved 20 µL of assay buffer solution, 20 µL of the test sample, and 40 µL of 0.2 U/mL of AChE or BChE. The mixture was incubated for 10 min at 25 °C followed by the addition of substrate (20 µL). For AChE inhibition assay, acetylthiocholine iodide (ATCI, 0.001 mol/L), while for BChE assay, butyrylthiocholine chloride (BTCCl, 0.001 mol/L) was added to it. The mixture was incubated at 37 °C for 15 min. Ellman reagent (5,5′-dithio-bis(2-nitrobenzoic acid), DTNB, 0.001 mol/L) was added. […] The blank analysis was performed. All the analyses were performed in triplicate. Inhibition rate of experimental sample or positive control group (%) = [(control group-blank background)-(experimental sample or positive control group -sample background)]/(control-blank background) × 100%.

Sequence of BChE (P06276 29-602): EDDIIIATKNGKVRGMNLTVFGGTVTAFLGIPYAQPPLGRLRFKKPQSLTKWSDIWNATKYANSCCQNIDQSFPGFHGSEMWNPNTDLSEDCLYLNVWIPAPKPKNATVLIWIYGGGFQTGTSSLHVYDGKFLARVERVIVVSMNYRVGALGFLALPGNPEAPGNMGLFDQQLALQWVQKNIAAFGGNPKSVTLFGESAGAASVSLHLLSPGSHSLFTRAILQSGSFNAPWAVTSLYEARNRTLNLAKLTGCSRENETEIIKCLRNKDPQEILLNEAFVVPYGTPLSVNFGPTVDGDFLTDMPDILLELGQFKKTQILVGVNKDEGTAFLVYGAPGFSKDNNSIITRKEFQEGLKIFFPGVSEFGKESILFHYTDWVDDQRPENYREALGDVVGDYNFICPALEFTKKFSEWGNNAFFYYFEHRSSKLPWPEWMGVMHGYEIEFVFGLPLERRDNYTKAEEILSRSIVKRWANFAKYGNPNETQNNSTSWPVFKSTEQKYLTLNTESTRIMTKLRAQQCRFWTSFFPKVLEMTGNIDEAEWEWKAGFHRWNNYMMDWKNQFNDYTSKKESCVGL

For `O=C(NCc1ccccc1C(F)(F)F)N1CCc2ccccc2C1c1ccccc1` (stereo in doubt) [2k, (S)-N-(o-(trifluoromethyl)benzyl)-1-phenyl-3,4-dihydroisoquinoline-2(1H)-carboxa-mide], the “Inhibition Rate for MAO” value in the assay with MAO was 33.0%.
For orientation: inhibition means the change of the read-out against control, counted positive when it falls. Consider `O=C(NCc1cccc(C(F)(F)F)c1)N1CCc2ccccc2C1c1ccccc1` (stereo in doubt) [2l, (S)-N-(m-(trifluoromethyl)benzyl)-1-phenyl-3,4-dihydroisoquinoline-2(1H)-carbox-amide], for which the inhibition at 100 µM on BChE worked out at 49.1%.
Consider `O=C(NCc1ccc(C(F)(F)F)cc1)N1CCc2ccccc2C1c1ccccc1` (stereo in doubt) [2m, (S)-N-(p-(trifluoromethyl)benzyl)-1-phenyl-3,4-dihydroisoquinoline-2(1H)-carboxa-mide], for which the “Inhibition Rate for MAO” value with MAO was 35.8%.
The same measure, in the same setting: in the case of `O=C(NCc1ccccc1OC(F)(F)F)N1CCc2ccccc2C1c1ccccc1` (stereo in doubt) [2n, (S)-N-(o-(trifluoromethoxy)benzyl)-1-phenyl-3,4-dihydroisoquinoline-2(1H)-carbox-amide] it was 33.0%.
For the molecule `O=C(NCc1ccc(OC(F)(F)F)cc1)N1CCc2ccccc2C1c1ccccc1` (stereo in doubt) [2o, (S)-N-(p-(trifluoromethoxy)benzyl)-1-phenyl-3,4-dihydroisoquinoline-2(1H)-carbox-amide], the “Inhibition Rate for MAO” value in the assay with MAO worked out at 31.1%.
The same measure, in the same setting: in the case of `O=C(NCc1ccc(F)cc1F)N1CCc2ccccc2[C@@H]1c1ccccc1` [2aa, (S)-N-(2,4-difluorobenzyl)-1-phenyl-3,4-dihydroisoquinoline-2(1H)-carboxamide] it was 32.1%.
As for `O=C(NCc1c(F)cccc1F)N1CCc2ccccc2[C@@H]1c1ccccc1` [2ab, (S)-N-(2,6-difluorobenzyl)-1-phenyl-3,4-dihydroisoquinoline-2(1H)-carboxamide], the “Inhibition Rate for MAO” value in the assay on MAO stood at 33.0%. Further, at BChE, the inhibition at 100 µM stood at 24.9%.
With `N#Cc1ccc(CNC(=O)N2CCc3ccccc3[C@@H]2c2ccccc2)cc1` [2ac, (S)-N-(p-cyanobenzyl)-1-phenyl-3,4-dihydroisoquinoline-2(1H)-carboxamide], the inhibition at 100 µM at BChE is 17.7%.
On the same count and under the same terms, in the case of `O=C(NCc1ccccc1F)N1CCc2ccccc2[C@@H]1c1ccccc1` [2b, (S)-N-(o-fluorobenzyl)-1-phenyl-3,4-dihydroisoquinoline-2(1H)-carboxamide] it was 49%.
For `O=C(NCc1ccccc1Cl)N1CCc2ccccc2[C@@H]1c1ccccc1` [2e, (S)-N-(o-chlorobenzyl)-1-phenyl-3,4-dihydroisoquinoline-2(1H)-carboxamide], the “Inhibition Rate for MAO” value in the assay with MAO amounted to 41.4%.
As to `O=C(NCc1cccc(Cl)c1)N1CCc2ccccc2[C@@H]1c1ccccc1` [2f, (S)-N-(m-chlorobenzyl)-1-phenyl-3,4-dihydroisoquinoline-2(1H)-carboxamide], the inhibition at 100 µM at BChE came to 3.4%.
`O=C(NCc1ccc(Cl)cc1)N1CCc2ccccc2[C@@H]1c1ccccc1` [2g, (S)-N-(p-chlorobenzyl)-1-phenyl-3,4-dihydroisoquinoline-2(1H)-carboxamide]: the “Inhibition Rate for MAO” value in the assay on MAO was 21.2%.
As for `Cc1cccc(CNC(=O)N2CCc3ccccc3[C@@H]2c2ccccc2)c1` [2q, (S)-N-(m-methylbenzyl)-1-phenyl-3,4-dihydroisoquinoline-2(1H)-carboxamide], on BChE, the inhibition at 100 µM came out at 8.7%.
The same measure, in the same setting: in the case of `COc1ccccc1CNC(=O)N1CCc2ccccc2[C@@H]1c1ccccc1` [2s, (S)-N-(o-methoxybenzyl)-1-phenyl-3,4-dihydroisoquinoline-2(1H)-carboxamid] it was 39.6%; in that of `COc1ccc(CNC(=O)N2CCc3ccccc3[C@@H]2c2ccccc2)cc1` [2u, (S)-N-(p-methoxybenzyl)-1-phenyl-3,4-dihydroisoquinoline-2(1H)-carboxamide], 40.7%.
Still for that read-out and setting: in the case of `COc1ccc(CNC(=O)N2CCc3ccccc3[C@@H]2c2ccccc2)cc1OC` [2w, (S)-N-(3,4-dimethoxybenzyl)-1-phenyl-3,4-dihydroisoquinoline-2(1H)-carboxamide] it was 9.4%.
On to `O=C(NCc1ccc(Cl)cc1Cl)N1CCc2ccccc2[C@@H]1c1ccccc1` [2x, (S)-N-(2,4-dichlorobenzyl)-1-phenyl-3,4-dihydroisoquinoline-2(1H)-carboxamide], for which the “Inhibition Rate for MAO” value in the assay with MAO is 44.7%.
Same read-out and setting: in the case of `O=C(NCc1c(Cl)cccc1Cl)N1CCc2ccccc2[C@@H]1c1ccccc1` [2y, (S)-N-(2,6-dichlorobenzyl)-1-phenyl-3,4-dihydroisoquinoline-2(1H)-carboxamide] it was 37.7%.
`O=C(NCc1ccc(Cl)c(Cl)c1)N1CCc2ccccc2[C@@H]1c1ccccc1` [2z, (S)-N-(3,4-dichlorobenzyl)-1-phenyl-3,4-dihydroisoquinoline-2(1H)-carboxamide]: the “Inhibition Rate for MAO” value in the assay on MAO turned out to be 7.40%. Moreover, the inhibition at 100 µM at BChE is 12.1%.
A word on the IC50: it is the concentration that gives 50% inhibition. For `C#CCN[C@@H]1CCc2ccccc21` [Rasagiline, reference compound], in the assay with MAO, 338 nM corresponded to half-maximal inhibition (IC50) and the “Inhibition Rate for MAO” value came out at 91.75%.

The values above are taken from publication PMC9967051, “(S)-N-Benzyl-1-phenyl-3,4-dihydroisoqunoline-2(1H)-carboxamide Derivatives, Multi-Target Inhibitors of Monoamine Oxidase and Cholinesterase: Design, Synthesis, and Biological Activity” (Molecules, 2023).
